Test results: ChEMBL document CHEMBL1201862, “PubChem BioAssay data set” (2004)
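How tested: cells in 96-well plates exposed to compound for 48 hours at five concentrations. GI50 marks 50% less growth.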 The source made the active and inactive calls. Cut-off read from the data, not from the text of the source: active = GI50 up to about 1.1 µM and inactive = higher.

Assays:
Experiment in all cases: growth of human tumour cells (NCI), 48 h
RPMI-8226 = test system: RPMI-8226
XF498 = test system: XF498
SK-OV-3 = test system: SK-OV-3
SK-MEL-28 = test system: SK-MEL-28
OVCAR-4 = test system: OVCAR-4
COLO 205 = test system: COLO 205
UACC-257 = test system: UACC-257
MOLT-4 = test system: MOLT-4
SNB-75 = test system: SNB-75
DLD-1 = test system: DLD-1
M19-MEL = test system: M19-MEL
NCI-H226 = test system: NCI-H226
EKVX = test system: EKVX
LXFL 529 = test system: LXFL 529
TK-10 = test system: TK-10
A549 = test system: A549
K562 = test system: K562
DMS-114 = test system: DMS-114
CAKI-1 = test system: CAKI-1
SF-268 = test system: SF-268
SF-539 = test system: SF-539
HOP-62 = test system: HOP-62
NCI-H460 = test system: NCI-H460
HT-29 = test system: HT-29
HCT-15 = test system: HCT-15
KM-20L2 = test system: KM-20L2
ACHN = test system: ACHN
786-0 = test system: 786-0
IGROV-1 = test system: IGROV-1
A498 = test system: A498
Malme-3M = test system: Malme-3M
UO-31 = test system: UO-31
SN12C = test system: SN12C
CCRF-CEM = test system: CCRF-CEM
OVCAR-3 = test system: OVCAR-3
KM12 = test system: KM12
SW-620 = test system: SW-620
SK-MEL-2 = test system: SK-MEL-2
M14 = test system: M14
SNB-19 = test system: SNB-19
UACC-62 = test system: UACC-62
OVCAR-8 = test system: OVCAR-8
SF-295 = test system: SF-295
SK-MEL-5 = test system: SK-MEL-5
NCI-H522 = test system: NCI-H522
HL-60 = test system: HL-60
RXF 393 = test system: RXF 393
HCC 2998 = test system: HCC 2998
OVCAR-5 = test system: OVCAR-5
SNB-78 = test system: SNB-78
LOX IMVI = test system: LOX IMVI
NCI-H23 = test system: NCI-H23
DMS-273 = test system: DMS-273
SR = test system: SR
HCT-116 = test system: HCT-116
U-251 = test system: U-251
HOP-92 = test system: HOP-92

For `COc1cccc(C2=NC(C(C)C)CO2)c1` (stereo unspecified), the GI50 (RPMI-8226) was > 100 µM (inactive), the GI50 (XF498) was > 100 µM (inactive) and the GI50 (SK-OV-3) was > 100 µM (inactive). For the same compound, the GI50 (SK-MEL-28) was > 100 µM (inactive), the GI50 (OVCAR-4) was > 100 µM (inactive) and the GI50 (COLO 205) was > 100 µM (inactive). The GI50 (UACC-257) was > 100 µM (inactive), the GI50 (MOLT-4) was > 100 µM (inactive) and the GI50 (SNB-75) was > 100 µM (inactive). For the same compound, the GI50 (DLD-1) was > 100 µM (inactive), the GI50 (M19-MEL) was > 100 µM (inactive) and the GI50 (NCI-H226) was > 100 µM (inactive). The GI50 (EKVX) was > 100 µM (inactive), the GI50 (LXFL 529) was > 100 µM (inactive) and the GI50 (TK-10) was > 100 µM (inactive). For the same compound, the GI50 (A549) was > 100 µM (inactive), the GI50 (K562) was > 100 µM (inactive) and the GI50 (DMS-114) was > 100 µM (inactive). For the same compound, the GI50 (CAKI-1) was > 100 µM (inactive), the GI50 (SF-268) was > 100 µM (inactive) and the GI50 (SF-539) was > 100 µM (inactive). The GI50 (HOP-62) was > 100 µM (inactive), the GI50 (NCI-H460) was > 100 µM (inactive) and the GI50 (HT-29) was > 100 µM (inactive). For the same compound, the GI50 (HCT-15) was over 100 µM, the GI50 (KM-20L2) was > 100 µM (inactive) and the GI50 (ACHN) was > 100 µM (inactive). For the same compound, the GI50 (786-0) was > 100 µM (inactive), the GI50 (IGROV-1) was > 100 µM (inactive) and the GI50 (A498) was > 100 µM (inactive). The GI50 (Malme-3M) was > 100 µM (inactive), the GI50 (UO-31) was 85.7 µM (inactive) and the GI50 (SN12C) was > 100 µM (inactive). For the same compound, the GI50 (CCRF-CEM) was > 100 µM (inactive), the GI50 (OVCAR-3) was > 100 µM (inactive) and the GI50 (KM12) was > 100 µM (inactive). The GI50 (SW-620) was > 100 µM (inactive), the GI50 (SK-MEL-2) was > 100 µM (inactive) and the GI50 (M14) was > 100 µM (inactive). For the same compound, the GI50 (SNB-19) was > 100 µM (inactive), the GI50 (UACC-62) was > 100 µM (inactive) and the GI50 (OVCAR-8) was > 100 µM (inactive). The GI50 (SF-295) was > 100 µM (inactive), the GI50 (SK-MEL-5) was > 100 µM (inactive) and the GI50 (NCI-H522) was > 100 µM (inactive). The GI50 (HL-60) was > 100 µM (inactive), the GI50 (RXF 393) was > 100 µM (inactive) and the GI50 (HCC 2998) was > 100 µM (inactive). The GI50 (OVCAR-5) was > 100 µM (inactive), the GI50 (SNB-78) was > 100 µM (inactive) and the GI50 (LOX IMVI) was > 100 µM (inactive). The GI50 (NCI-H23) was > 100 µM (inactive) and the GI50 (DMS-273) was > 100 µM (inactive).
For `Cc1cc(C)nc(Nc2nc3cc([N+](=O)[O-])ccc3[nH]2)n1`, the GI50 (RPMI-8226) was > 100 µM (inactive), the GI50 (XF498) was > 100 µM (inactive) and the GI50 (SR) was > 100 µM (inactive). The GI50 (SK-MEL-28) was > 100 µM (inactive), the GI50 (OVCAR-4) was > 100 µM (inactive) and the GI50 (COLO 205) was > 100 µM (inactive). The GI50 (UACC-257) was > 100 µM (inactive), the GI50 (MOLT-4) was > 100 µM (inactive) and the GI50 (DLD-1) was > 100 µM (inactive). The GI50 (NCI-H226) was > 100 µM (inactive), the GI50 (EKVX) was > 100 µM (inactive) and the GI50 (HCT-116) was > 100 µM (inactive). The GI50 (LXFL 529) was > 100 µM (inactive), the GI50 (U-251) was > 100 µM (inactive) and the GI50 (TK-10) was > 100 µM (inactive). The GI50 (A549) was > 100 µM (inactive), the GI50 (K562) was > 100 µM (inactive) and the GI50 (DMS-114) was > 100 µM (inactive). The GI50 (CAKI-1) was > 100 µM (inactive), the GI50 (SF-268) was > 100 µM (inactive) and the GI50 (SF-539) was > 100 µM (inactive). For the same compound, the GI50 (HOP-62) was > 100 µM (inactive), the GI50 (NCI-H460) was > 100 µM (inactive) and the GI50 (HT-29) was > 100 µM (inactive). For the same compound, the GI50 (HCT-15) was over 100 µM, the GI50 (KM-20L2) was > 100 µM (inactive) and the GI50 (ACHN) was > 100 µM (inactive). For the same compound, the GI50 (786-0) was > 100 µM (inactive), the GI50 (IGROV-1) was > 100 µM (inactive) and the GI50 (A498) was > 100 µM (inactive). For the same compound, the GI50 (Malme-3M) was > 100 µM (inactive), the GI50 (UO-31) was > 100 µM (inactive) and the GI50 (SN12C) was > 100 µM (inactive). The GI50 (CCRF-CEM) was > 100 µM (inactive), the GI50 (OVCAR-3) was > 100 µM (inactive) and the GI50 (KM12) was > 100 µM (inactive). For the same compound, the GI50 (SW-620) was > 100 µM (inactive), the GI50 (SK-MEL-2) was > 100 µM (inactive) and the GI50 (M14) was > 100 µM (inactive). The GI50 (SNB-19) was > 100 µM (inactive), the GI50 (UACC-62) was > 100 µM (inactive) and the GI50 (OVCAR-8) was > 100 µM (inactive). For the same compound, the GI50 (SF-295) was > 100 µM (inactive), the GI50 (SK-MEL-5) was > 100 µM (inactive) and the GI50 (HOP-92) was 31.1 µM (inactive). For the same compound, the GI50 (NCI-H522) was > 100 µM (inactive), the GI50 (HL-60) was > 100 µM (inactive) and the GI50 (HCC 2998) was > 100 µM (inactive). The GI50 (OVCAR-5) was > 100 µM (inactive), the GI50 (SNB-78) was > 100 µM (inactive) and the GI50 (LOX IMVI) was > 100 µM (inactive). For the same compound, the GI50 (NCI-H23) was > 100 µM (inactive) and the GI50 (DMS-273) was > 100 µM (inactive).
